Experimental data reported in patent US6645915B1, “Substituted 1,3,5- triazines” (Nihon Bayer Agrochem K. K., priority 1998, dated 2003).

What was measured:
Xanthium = assay: Post-emergence test B-1 / greenhouse; format: in vivo; conditions: 500 g of ai./ha, rated after three weeks, 0% = no effect, 100% = total destruction
Experimental: (§1) To produce a suitable preparation of active compound, 1 part by weight of active compound is mixed with the stated amount of solvent, the stated amount of emulsifier is added and the concentrate is diluted with water to the desired concentration.
(§2) Test plants of a height of 5-15 cm are sprayed with the preparation of active compound such that the particular amounts of active compound desired are applied per unit area. The concentration of the spray liquor is chosen so that the particular amounts of active compound desired are applied in 1000 l of water/ha.
(§3) After three weeks, the degree of damage to the plants is rated in % damage in comparison to the development of the untreated control.
(§4) 0%=no effect (like untreated control)

Amaranthus [1] = assay: Post-emergence test B-1 / greenhouse; format: in vivo; conditions: 500 g of ai./ha, rated after three weeks, 0% = no effect, 100% = total destruction
Experimental: as §1, §2, §3, §4

Sinapis = assay: Post-emergence test B-1 / greenhouse; format: in vivo; conditions: 500 g of ai./ha, rated after three weeks, 0% = no effect, 100% = total destruction
Experimental: as §1, §2, §3, §4

Setaria = assay: Post-emergence test B-1 / greenhouse; format: in vivo; conditions: 500 g of ai./ha, rated after three weeks, 0% = no effect, 100% = total destruction
Experimental: as §1, §2, §3, §4

[2] = logP by reversed-phase HPLC (EEC Directive 79/831 Annex V.A8); format: physicochemical; conditions: acetonitrile gradient; for logP: HPLC, reversed-phase C 18, 43° C., acidic range a): 0.1% aqueous phosphoric acid; for chromatographic logP: reversed-phase C18 HPLC column; HPLC, reversed-phase C 18, 43° C., acidic range a): 0.1% aqueous phosphoric acid
Experimental: The logP values given in Table 1 were determined in accordance with EEC Directive 79/831 Annex V.A8 by HPLC (High Performance Liquid Chromatography) using a reversed-phase column (C 18). Temperature: 43° C.
(a) Mobile phase for the determination in the acidic range: 0.1% aqueous phosphoric acid, acetonitrile; linear gradient from 10% acetonitrile to 90% acetonitrile—the corresponding data in Table 1 are labelled^a).
Calibration was carried out using unbranched alkan-2-ones (having from 3 to 16 carbon atoms) with known logP values (the logP values were determined using the retention times, by linear interpolation between two successive alkanones).

weeds [3] = assay: Post-emergence test B-1; format: in vivo; conditions: post-emergence test B-1, in words
Experimental: as §1, §2, §3, §4

Maize [4] = assay: Post-emergence test B-1 / greenhouse; format: in vivo; conditions: 500 g of ai./ha, rated after three weeks, 0% = no effect, 100% = total destruction
Experimental: as §1, §2, §3, §4

Abutilon [5] = assay: Post-emergence test B-1 / greenhouse; format: in vivo; conditions: 500 g of ai./ha, rated after three weeks, 0% = no effect, 100% = total destruction
Experimental: as §1, §2, §3, §4

[6] = system: Echinocloa crus galli, Setaria viridis, Amaranthus lividus and Polygonum blumei MEISSN; assay: Pre-emergence test A-2; format: in vivo; conditions: pre-emergence test A-2, rated after four weeks, in words
Experimental: as §1
Seeds of the test plants (Echinocloa crus galli, Setaria viridis, Amaranthus lividus and Polygonum blumei MEISSN) are sown in normal soil. The soil is sprayed with the preparation of active compound such that the particular amount of active compound desired is applied per unit area.
After four weeks, the degree of damage to the plants is rated in % damage in comparison to the development of the untreated controls.
as §4

[7] = system: Echinocloa crus galli, Setaria viridis, Amaranthus lividus and Polygonum blumei MEISSN; assay: Post-emergence test B-2; format: in vivo; conditions: post-emergence test B-2, plants in 2-leaf stage, rated after three weeks, in words
Experimental: as §1
Test plants (Echinocloa crus galli, Setaria viridis, Amaranthus lividus and Polygonum blumei MEISSN) which, on average, are in the 2-leaf stage, are sprayed with the preparation of active compound such that the particular amounts of active compound desired are applied per unit area.
as §3, §4

Amaranthus [8] = assay: Pre-emergence test A-1 / greenhouse; format: in vivo; conditions: 500 g of ai./ha, rated after three weeks, 0% = no effect, 100% = total destruction
Experimental: as §1
(§5) Seeds of the test plants are sown in normal soil. After about 24 hours, the soil is sprayed with the preparation of active compound such that the particular amount of active compound desired is applied per unit area. The concentration of the spray liquor is chosen so that the particular amount of active compound desired is applied in 1000 litres of water per hectare.
as §3, §4

Maize [9] = assay: Pre-emergence test A-1 / greenhouse; format: in vivo
Experimental: as §1, §5, §3, §4

Abutilon [10] = assay: Pre-emergence test A-1 / greenhouse; format: in vivo; conditions: 500 g of ai./ha, rated after three weeks, 0% = no effect, 100% = total destruction
Experimental: as §1, §5, §3, §4

weeds [11] = assay: Pre-emergence test A-1; format: in vivo; conditions: pre-emergence test A-1, in words
Experimental: as §1, §5, §3, §4

| Compound | % damage, Amaranthus (Amaranthus [1]) | % damage, Sinapis (Sinapis) | % damage, Setaria (Setaria) | logP [2] | action against weeds (weeds [3]) | other results |
| --- | --- | --- | --- | --- | --- | --- |
| CC(Nc1nc(N)nc(C(C)(C)F)n1)C1CCCCC1 (racemic) [Example 7] | 100% | 100% | 100% | logP = 1.93^a) (racemate) | strong action | % damage, Xanthium (Xanthium): 100% |
| CCC(=O)Nc1nc(N[C@@H](C)C2CCCCC2)nc(C(C)F)n1 (stereo partly shown) [Example 21] | – | – | – | logP = 3.11^a) (S enantiomer) | – | – |
| CCC(=O)Nc1nc(NC(C)C2CCCCC2)nc(C(C)(C)F)n1 (racemic) [Example 9] | 95% | 100% | 90% | logP = 3.30^a) (racemate) | strong action | % damage, Maize (Maize [4]): 30% |
| N-acetyl-N′-(1-ethylpropyl)-6-(1-fluoro-1-methylethyl)-1,3,5-triazine-2,4-diamine [Example 5] | 100% | 95% | 95% | – | strong action | % damage, Abutilon (Abutilon [5]): 90% |
| CCC(CC)Nc1nc(N)nc(C(C)F)n1 (racemic) [Example 32] | – | – | – | – | – | action against the abovementioned weeds [6]: strong action |
| CC(Nc1nc(N)nc(C(F)(F)Cl)n1)C1CCCCC1 (racemic) [Example 6] | 100% | 100% | 100% | logP = 3.51^a) (racemate) | strong action | % damage, Xanthium (Xanthium): 100% |
| CCC(=O)Nc1nc(NC(C)C2CCCCC2)nc(C(F)(F)Cl)n1 (racemic) [Example 8] | 100% | 100% | 100% | logP = 4.23^a) (racemate) | strong action | % damage, Xanthium (Xanthium): 100% |
| CCC(CC)Nc1nc(N)nc(C(C)(C)F)n1 [Example 33] | – | – | – | – | – | action against the abovementioned weeds [6]: strong action |
| CCC(=O)Nc1nc(N[C@H](C)C2CCCCC2)nc(C(C)(C)F)n1 [Example 16] | – | – | – | logP = 3.25^a) (R enantiomer) | – | – |
| CC(C)CC(C)Nc1nc(N)nc(C(C)(C)F)n1 (racemic) [Example 29] | – | – | – | – | – | action against the abovementioned weeds [7]: strong action |
| CCC(=O)Nc1nc(N[C@@H](C)C2CCCCC2)nc(C(C)(C)F)n1 [Example 22] | – | – | – | logP = 3.26^a) (S enantiomer) | – | – |
| C[C@H](Nc1nc(NC=O)nc([C@@H](C)F)n1)C1CCCCC1 [Example 3, (R,S)-N-[4-(1-cyclohexyl-ethylamino)-6-(1-fluoro-ethyl)-1,3,5-triazin-2-yl]-formamide] | 100% | 100% | 100% | – | strong action | % damage, Abutilon (Abutilon [5]): 90%; chromatographic logP [2]: 3.04; melting point: 127 °C |
| C[C@H](Nc1nc(N)nc([C@@H](C)F)n1)C1CCCCC1 [Example 1, (R,S)-N′-(1-cyclohexyl-ethyl)-6-(1-fluoro-ethyl)-1,3,5-triazine-2,4-diamine] | 100% | 100% | 100% | – | strong action | % damage, Xanthium (Xanthium): 100%; chromatographic logP [2]: 1.83; % damage, Amaranthus (Amaranthus [8]): 100%; tolerance by crop plants, such as maize (Maize [9]; pre-emergence test A-1, in words): tolerated very well; % damage, Maize (Maize [9]; pre-emergence, 500 g of ai./ha, rated after three weeks, 0% = no effect, 100% = total destruction): 0%; % damage, Abutilon (Abutilon [10]): 80%; action against weeds (weeds [11]): strong action |
| CCC(=O)Nc1nc(N[C@@H](C)C2CCCCC2)nc(C(Cl)Cl)n1 [Example 23] | – | – | – | logP = 2.93^a) (S enantiomer) | – | – |
| CCC(=O)Nc1nc(N[C@H](C)C2CCCCC2)nc(C(Cl)Cl)n1 [Example 17] | – | – | – | logP = 2.93^a) (R enantiomer) | – | – |
| CCC(=O)Nc1nc(N[C@@H](C)C2CCCCC2)nc([C@@H](C)F)n1 [Example 2, (R,S)-N-[4-(1-cyclohexyl-ethylamino)-6-(1-fluoro-ethyl)-1,3,5-triazin-2-yl]-propionamide] | 100% | 100% | 100% | – | strong action | % damage, Xanthium (Xanthium): 100%; chromatographic logP [2]: 3.14 |
| CCCC(C)Nc1nc(N)nc(C(C)(C)F)n1 (racemic) [Example 28] | – | – | – | – | – | action against the abovementioned weeds [7]: strong action |
| CCC(CC)Nc1nc(NC(C)=O)nc(C(C)(C)F)n1 [Example 34] | – | – | – | – | – | action against the abovementioned weeds [6]: strong action |
| N-(1-ethylpropyl)-6-(1-fluoro-1-methylethyl)-1,3,5-triazine-2,4-diamine [Example 4] | 100% | 100% | 100% | – | strong action | % damage, Xanthium (Xanthium): 100% |
| CC(C)CCCC(C)Nc1nc(N)nc(C(C)(C)F)n1 (racemic) [Example 31] | – | – | – | – | – | action against the abovementioned weeds [7]: strong action |
| CCC(=O)Nc1nc(N[C@H](C)C2CCCCC2)nc(C(C)F)n1 (stereo partly shown) [Example 15] | – | – | – | logP = 3.11^a) (R enantiomer) | – | – |
